Test results from ChEMBL document CHEMBL1671689, “Activity of ceftaroline against recent emerging serotypes of Streptococcus pneumoniae in the United States” (2010).
≈ marks a conversion by molar mass, not a printed value.

Tests used:
Format in all cases: functional
Streptococcus pneumoniae [1] = assay: Antimicrobial activity against Streptococcus pneumoniae serotype 3 by broth microdilution method
Streptococcus pneumoniae [2] = assay: Antimicrobial activity against Streptococcus pneumoniae serotype 7F by broth microdilution method
Streptococcus pneumoniae [3] = assay: Antimicrobial activity against Streptococcus pneumoniae serotype 11A by broth microdilution method
Streptococcus pneumoniae [4] = assay: Antimicrobial activity against multiple drug resistant Streptococcus pneumoniae serotype 6B assessed as percent susceptible isolates by broth microdilution method
Streptococcus pneumoniae [5] = assay: Antimicrobial activity against Streptococcus pneumoniae serotype 11A assessed as percent susceptible isolates by broth microdilution method
Streptococcus pneumoniae [6] = assay: Antimicrobial activity against Streptococcus pneumoniae serotype 19F assessed as percent susceptible isolates by broth microdilution method
Streptococcus pneumoniae [7] = assay: Antimicrobial activity against Streptococcus pneumoniae serotype 35B assessed as percent susceptible isolates by broth microdilution method
Streptococcus pneumoniae [8] = assay: Antimicrobial activity against Streptococcus pneumoniae serotype 7F assessed as percent susceptible isolates by broth microdilution method
Streptococcus pneumoniae [9] = assay: Antimicrobial activity against multiple drug resistant Streptococcus pneumoniae serotype 19F by broth microdilution method
Streptococcus pneumoniae [10] = assay: Antimicrobial activity against Streptococcus pneumoniae serotype 23A assessed as percent susceptible isolates by broth microdilution method
Streptococcus pneumoniae [11] = assay: Antimicrobial activity against Streptococcus pneumoniae serotype 19A assessed as percent susceptible isolates by broth microdilution method
Streptococcus pneumoniae [12] = assay: Antimicrobial activity against Streptococcus pneumoniae serotype 6C by broth microdilution method
Streptococcus pneumoniae [13] = assay: Antimicrobial activity against Streptococcus pneumoniae serotype 23B assessed as percent susceptible isolates by broth microdilution method
Streptococcus pneumoniae [14] = assay: Antimicrobial activity against Streptococcus pneumoniae serotype 6C assessed as percent susceptible isolates by broth microdilution method
Streptococcus pneumoniae [15] = assay: Antimicrobial activity against multiple drug resistant Streptococcus pneumoniae serotype 19F assessed as percent susceptible isolates by broth microdilution method
Streptococcus pneumoniae [16] = assay: Antimicrobial activity against multiple drug resistant Streptococcus pneumoniae serotype 19A by broth microdilution method
Streptococcus pneumoniae [17] = assay: Antimicrobial activity against Streptococcus pneumoniae serotype 3 assessed as percent susceptible isolates by broth microdilution method
Streptococcus pneumoniae [18] = assay: Antimicrobial activity against Streptococcus pneumoniae serotype 19A by broth microdilution method
Streptococcus pneumoniae [19] = assay: Antimicrobial activity against multiple drug resistant Streptococcus pneumoniae serotype 19A assessed as percent susceptible isolates by broth microdilution method
Streptococcus pneumoniae [20] = assay: Antimicrobial activity against Streptococcus pneumoniae serotype 15A assessed as percent susceptible isolates by broth microdilution method
Streptococcus pneumoniae [21] = assay: Antimicrobial activity against Streptococcus pneumoniae serotype 35B by broth microdilution method
Streptococcus pneumoniae [22] = assay: Antimicrobial activity against multiple drug resistant Streptococcus pneumoniae serotype 6B by broth microdilution method
Streptococcus pneumoniae [23] = assay: Antimicrobial activity against Streptococcus pneumoniae serotype 22F assessed as percent susceptible isolates by broth microdilution method

## CC1(C)S[C@@H]2[C@H](NC(=O)Cc3ccccc3)C(=O)N2[C@H]1C(=O)O [PENICILLIN G]
Streptococcus pneumoniae [1]
  MIC: ≤ 0.03 µg/mL
  MIC50: ≤ 0.03 µg/mL
  MIC90: ≤ 0.03 µg/mL
Streptococcus pneumoniae [2]
  MIC: ≤ 0.03 µg/mL
  MIC50: ≤ 0.03 µg/mL
  MIC90: ≤ 0.03 µg/mL
Streptococcus pneumoniae [3]
  MIC: ≤ 0.03 µg/mL
  MIC50: ≤ 0.03 µg/mL
  MIC90: ≤ 0.03 µg/mL
Streptococcus pneumoniae [4]
  Activity: 11.4%
Streptococcus pneumoniae [5]
  Activity: 100%
Streptococcus pneumoniae [6]
  Activity: 37.9%
Streptococcus pneumoniae [7]
  Activity: 98.3%
Streptococcus pneumoniae [8]
  Activity: 98.3%
Streptococcus pneumoniae [9]
  MIC50: 4 µg/mL (≈ 12 µM)
  MIC90: 4 µg/mL (≈ 12 µM)
Streptococcus pneumoniae [10]
  Activity: 100%
Streptococcus pneumoniae [11]
  Activity: 46.6%
Streptococcus pneumoniae [12]
  MIC50: 0.5 µg/mL (≈ 1.5 µM)
  MIC90: 1 µg/mL (≈ 2.99 µM)
Streptococcus pneumoniae [13]
  Activity: 100%
Streptococcus pneumoniae [14]
  Activity: 100%
Streptococcus pneumoniae [15]
  Activity: 11.4%
Streptococcus pneumoniae [16]
  MIC50: 4 µg/mL (≈ 12 µM)
  MIC90: 4 µg/mL (≈ 12 µM)
Streptococcus pneumoniae [17]
  Activity: 100%
Streptococcus pneumoniae [18]
  MIC50: 4 µg/mL (≈ 12 µM)
  MIC90: 4 µg/mL (≈ 12 µM)
Streptococcus pneumoniae [19]
  Activity: 11.4%
Streptococcus pneumoniae [20]
  Activity: 100%
Streptococcus pneumoniae [21]
  MIC50: 2 µg/mL (≈ 5.98 µM)
  MIC90: 2 µg/mL (≈ 5.98 µM)
Streptococcus pneumoniae [22]
  MIC50: 4 µg/mL (≈ 12 µM)
  MIC90: 4 µg/mL (≈ 12 µM)
Streptococcus pneumoniae [23]
  Activity: 100%

## CC1(C)S[C@@H]2[C@H](NC(=O)COc3ccccc3)C(=O)N2[C@H]1C(=O)O [PENICILLIN V]
Streptococcus pneumoniae [1]
  MIC: ≤ 0.03 µg/mL
  MIC50: ≤ 0.03 µg/mL
  MIC90: ≤ 0.03 µg/mL
Streptococcus pneumoniae [2]
  MIC: ≤ 0.03 µg/mL
  MIC50: ≤ 0.03 µg/mL
  MIC90: ≤ 0.03 µg/mL
Streptococcus pneumoniae [3]
  MIC: ≤ 0.03 µg/mL
  MIC50: ≤ 0.03 µg/mL
  MIC90: ≤ 0.03 µg/mL
Streptococcus pneumoniae [4]
  Activity: 0%
Streptococcus pneumoniae [5]
  Activity: 95.9%
Streptococcus pneumoniae [6]
  Activity: 20.7%
Streptococcus pneumoniae [7]
  Activity: 10.2%
Streptococcus pneumoniae [8]
  Activity: 10.2%
Streptococcus pneumoniae [9]
  MIC50: 4 µg/mL (≈ 11.4 µM)
  MIC90: 4 µg/mL (≈ 11.4 µM)
Streptococcus pneumoniae [10]
  Activity: 36.4%
Streptococcus pneumoniae [11]
  Activity: 13.8%
Streptococcus pneumoniae [12]
  MIC50: 0.5 µg/mL (≈ 1.43 µM)
  MIC90: 1 µg/mL (≈ 2.85 µM)
Streptococcus pneumoniae [13]
  Activity: 84.8%
Streptococcus pneumoniae [14]
  Activity: 37.2%
Streptococcus pneumoniae [15]
  Activity: 0%
Streptococcus pneumoniae [16]
  MIC50: 4 µg/mL (≈ 11.4 µM)
  MIC90: 4 µg/mL (≈ 11.4 µM)
Streptococcus pneumoniae [17]
  Activity: 98.8%
Streptococcus pneumoniae [18]
  MIC50: 4 µg/mL (≈ 11.4 µM)
  MIC90: 4 µg/mL (≈ 11.4 µM)
Streptococcus pneumoniae [19]
  Activity: 0%
Streptococcus pneumoniae [20]
  Activity: 10.5%
Streptococcus pneumoniae [21]
  MIC50: 2 µg/mL (≈ 5.71 µM)
  MIC90: 2 µg/mL (≈ 5.71 µM)
Streptococcus pneumoniae [22]
  MIC50: 4 µg/mL (≈ 11.4 µM)
  MIC90: 4 µg/mL (≈ 11.4 µM)
Streptococcus pneumoniae [23]
  Activity: 100%

## CN[C@H](CC(C)C)C(=O)N[C@H]1C(=O)N[C@@H](CC(N)=O)C(=O)N[C@H]2C(=O)N[C@H]3C(=O)N[C@H](C(=O)N[C@H](C(=O)O)c4cc(O)cc(O)c4-c4cc3ccc4O)[C@H](O)c3ccc(c(Cl)c3)Oc3cc2cc(c3O[C@@H]2O[C@H](CO)[C@@H](O)[C@H](O)[C@H]2O[C@H]2C[C@](C)(N)[C@H](O)[C@H](C)O2)Oc2ccc(cc2Cl)[C@H]1O [VANCOMYCIN]
Streptococcus pneumoniae [1]
  MIC: ≤ 1 µg/mL
  MIC50: ≤ 1 µg/mL
  MIC90: ≤ 1 µg/mL
Streptococcus pneumoniae [2]
  MIC: ≤ 1 µg/mL
  MIC50: ≤ 1 µg/mL
  MIC90: ≤ 1 µg/mL
Streptococcus pneumoniae [3]
  MIC: ≤ 1 µg/mL
  MIC50: ≤ 1 µg/mL
  MIC90: ≤ 1 µg/mL
Streptococcus pneumoniae [4]
  Activity: 100%
Streptococcus pneumoniae [5]
  Activity: 100%
Streptococcus pneumoniae [6]
  Activity: 100%
Streptococcus pneumoniae [7]
  Activity: 100%
Streptococcus pneumoniae [8]
  Activity: 100%
Streptococcus pneumoniae [9]
  MIC: ≤ 1 µg/mL
  MIC50: ≤ 1 µg/mL
  MIC90: ≤ 1 µg/mL
Streptococcus pneumoniae [10]
  Activity: 100%
Streptococcus pneumoniae [11]
  Activity: 100%
Streptococcus pneumoniae [12]
  MIC: ≤ 1 µg/mL
  MIC50: ≤ 1 µg/mL
  MIC90: ≤ 1 µg/mL
Streptococcus pneumoniae [13]
  Activity: 100%
Streptococcus pneumoniae [14]
  Activity: 100%
Streptococcus pneumoniae [15]
  Activity: 100%
Streptococcus pneumoniae [16]
  MIC: ≤ 1 µg/mL
  MIC50: ≤ 1 µg/mL
  MIC90: ≤ 1 µg/mL
Streptococcus pneumoniae [17]
  Activity: 100%
Streptococcus pneumoniae [18]
  MIC: ≤ 1 µg/mL
  MIC50: ≤ 1 µg/mL
  MIC90: ≤ 1 µg/mL
Streptococcus pneumoniae [19]
  Activity: 100%
Streptococcus pneumoniae [20]
  Activity: 100%
Streptococcus pneumoniae [21]
  MIC: ≤ 1 µg/mL
  MIC50: ≤ 1 µg/mL
  MIC90: ≤ 1 µg/mL
Streptococcus pneumoniae [22]
  MIC: ≤ 1 µg/mL
  MIC50: ≤ 1 µg/mL
  MIC90: ≤ 1 µg/mL
Streptococcus pneumoniae [23]
  Activity: 100%
